System: primary rat hepatocytes
Experiment: TGF-β1-induced apoptosis, percentage of apoptotic cells
Assay type: cell-based
Conditions: 1 nM TGF-β1 36 hours; 100 μM compound pre-treatment; FIG. 8B
Procedure: Primary rat hepatocytes were isolated from male rats (100-150 grams) by collagenase perfusion (as described by Solá S, et al., 2003, Journal of Biological Chemistry 278: 48831-48838)). Briefly, rats were anesthetized with phenobarbital sodium (100 mg/kg body weight) injected into the peritoneal cavity. After administration of heparin (200 units/kg body weight) in the tail vein, the animal's abdomen was opened and the portal vein exposed and cannulated. The liver was then perfused at 37° C. in situ with a calcium-free Hanks' Balanced Salt Solution (HBSS) for about 10 minutes, and then with 0.05% collagenase type IV in calcium-present HBSS for another 10 minutes. […] Cell viability was determined by trypan blue exclusion and was typically 80-85%. […] Fluorescence was visualized using an Axioskop fluorescence microscope (Carl Zeiss GmbH). Blue-fluorescent nuclei were scored blindly and categorized according to the condensation and staining characteristics of chromatin. […] Five random microscopic fields per sample containing approximately 150 nuclei were counted, and mean values expressed as the percentage of apoptotic nuclei. […] Results are expressed as means±SEM of at least three experiments. *p<0.01 from control; § p<0.05 and †p<0.01 from TGF-β1.

**Q.** Which “reduction of the percentage of apoptotic cells” value does the source give for `C[C@H](CCC(=O)O)[C@H]1CC[C@H]2[C@@H]3[C@@H](O)C[C@@H]4C[C@H](O)CC[C@]4(C)[C@H]3CC[C@]12C` [UDCA, Ursodeoxycholic acid, reference compound] here?
**A.** ~40%

**Q.** “7,8-[^2H]-3α,7α-dihydroxy-5β-cholan-24-oic acid/7-[^2H]-3α,7α-dihydroxy-5β-cholan-24-oic acid [Compound 5]” was tested. Which “reduction of the percentage of apoptotic cells” value did it give?
**A.** ~40%

From patent US10144758B2, “Deuterated bile acids” (Metselex, Inc., priority 2013, dated 2018)
